Legend:
[1] = system: peripheral blood mononuclear cells (PBMC); test: IFN-γ secretion by PBMC incubated 72 h with Immune+™ with or without PHA, ELISA (Example 2); assay type: cell-based, human; conditions: PHA alone, 10 μg/ml
Experimental: (§1) Ten mg of Immune+™ was suspended in 1 ml RPMI-1640 with 10% heat inactivated fetal bovine serum (media). The suspension was shaken vigorously on a vortex mixer. The insoluble components were quickly pelleted and the remaining suspension filtered twice: first through a 0.45 micron syringe filter followed by a 0.2 micron syringe filter. This filtrate was used as our stock (approx. 10 mg/ml) from which dilutions were made for the incubations with PBMC. The stock solution was diluted in media prior to treatment with PBMC.
(§2) Volunteers of various ethnic backgrounds and ranging in age from 18-35 years, participated in this study. […] Viability was determined by trypan blue exclusion and was consistently >96%. […]
(§3) Aliquots of culture supernates were frozen immediately upon harvest and stored at −20° C. until analysis by ELISA. Concentrations of IL-1 β and IFN-γ were determined using the DuoSet® ELISA Development System (R & D Systems, Minneapolis, Minn.) with a detection limit of 3.9 and 15.6 pg/ml respectively.
(§4) The effects of various concentrations of Immune+™ on IL-1β and IFN-γ production in either unstimulated or PHA-stimulated PBMC were analyzed using a one-way ANOVA followed by post-hoc Tukey comparison. […]
(§5) The concentrations of IL-1β and IFN-γ in the supernate were measured by ELISA.

[2] = system: peripheral blood mononuclear cells (PBMC); test: IL-1β secretion by PBMC incubated 72 h with Immune+™ with or without PHA, ELISA (Example 2); assay type: cell-based, human; conditions: PHA alone, 10 μg/ml
Experimental: as §1, §2, §3, §4, §5

normal PBMC = conditions: glycyrrhizin alone; cited from earlier work

Compound	IFN-γ production [1]	IL-1β production [2]	IFN-γ production (normal PBMC)
phytohemagglutinin [PHA]	resulted in a production of IFN-γ	no effect	–
CC1(C)[C@@H](O[C@H]2O[C@H](C(=O)O)[C@@H](O)[C@H](O)[C@H]2O[C@@H]2O[C@H](C(=O)O)[C@@H](O)[C@H](O)[C@H]2O)CC[C@]2(C)[C@H]3C(=O)C=C4[C@@H]5C[C@@](C)(C(=O)O)CC[C@]5(C)CC[C@@]4(C)[C@]3(C)CC[C@@H]12 [glycyrrhizin, 20β-carboxy-11-oxo-30-norolean-12-en-3 βyl-2-O-β-D-glucopyranuronosyl-α-D-glucopyranosiduronic acid]	–	–	did not markedly alter

Source: patent publication US6468541B2, “Natural, non-allergenic, immune system stimulant” (Chinese Herbal USA, Inc., priority 2000, dated 2002)
